# Legend:
# Test in all cases: Field trial, visual weed control in winter oilseed rape
# Assay type in all cases: in vivo
# [1] = system: VERSS Veronica sp. (speedwell)
# Description: (§1) Multiple small plot research experiments were conducted to evaluate efficacy and tolerance of winter oilseed rape to compositions described herein. Typical small plots (2-4×4-10 meters (m)) were used in growers' fields under natural conditions with normal commercial cultural practices. Backpack sprayers were used to apply all treatments based on unit area. The methyl ester of formula (I) and propyzamide were tested alone and in combination at varying rates. […] Crop stage was at Growth Stage 39-50. Visual crop injury ratings were collected 32, 49, and 74 days after treatment. […] The reported values are means. […] The following abbreviations are used in Tables 2-4: • GERSS Geranium sp. (cranesbill) • POAAN Poa annua (annual bluegrass) • VERSS Veronica sp.
# [2] = system: GERSS Geranium sp. (cranesbill)
# Description: as §1
# [3] = system: POAAN Poa annua (annual bluegrass)
# Description: as §1
structure (smiles),measurement,setting,value
"COC(=O)c1nc(-c2ccc(Cl)c(OC)c2F)cc(N)c1Cl [Cmpd I, methyl ester of 4-amino-3-chloro-6-(4-chloro-2-fluoro-3-methoxyphenyl)pyridine-2-carboxylic acid]","% control rated visually, ob (observed)","[1]; Cmpd I 1.25 g ae/ha, 32 DAAA",10.0%
same,"% control rated visually, ob (observed)","[1]; Cmpd I 1.25 g ae/ha, 80 DAAA",80.0%
same,"% control rated visually, ob (observed)","[1]; Cmpd I 2.5 g ae/ha, 32 DAAA",26.3%
same,"% control rated visually, ob (observed)","[1]; Cmpd I 2.5 g ae/ha, 80 DAAA",97.5%
same,"% control rated visually, ob (observed)","[1]; Cmpd I 5 g ae/ha, 32 DAAA",45.0%
same,"% control rated visually, ob (observed)","[1]; Cmpd I 5 g ae/ha, 80 DAAA",100.0%
same,"% control rated visually, ob (observed)","[1]; Cmpd I 7.5 g ae/ha, 32 DAAA",81.3%
same,"% control rated visually, ob (observed)","[1]; Cmpd I 7.5 g ae/ha, 80 DAAA",100.0%
same,"% control rated visually, ob (observed)","[2]; Cmpd I 1.25 g ae/ha, 32 DAAA",42.5%
same,"% control rated visually, ob (observed)","[2]; Cmpd I 1.25 g ae/ha, 58 DAAA",62.5%
same,"% control rated visually, ob (observed)","[2]; Cmpd I 1.25 g ae/ha, 80 DAAA",53.8%
same,"% control rated visually, ob (observed)","[2]; Cmpd I 2.5 g ae/ha, 32 DAAA",42.5%
same,"% control rated visually, ob (observed)","[2]; Cmpd I 2.5 g ae/ha, 58 DAAA",57.5%
same,"% control rated visually, ob (observed)","[2]; Cmpd I 2.5 g ae/ha, 80 DAAA",67.5%
same,"% control rated visually, ob (observed)","[2]; Cmpd I 5 g ae/ha, 32 DAAA",89.3%
same,"% control rated visually, ob (observed)","[2]; Cmpd I 5 g ae/ha, 58 DAAA",77.5%
same,"% control rated visually, ob (observed)","[2]; Cmpd I 5 g ae/ha, 80 DAAA",69.5%
same,"% control rated visually, ob (observed)","[2]; Cmpd I 7.5 g ae/ha, 32 DAAA",91.3%
same,"% control rated visually, ob (observed)","[2]; Cmpd I 7.5 g ae/ha, 58 DAAA",91.3%
same,"% control rated visually, ob (observed)","[2]; Cmpd I 7.5 g ae/ha, 80 DAAA",99.8%
same,"% control rated visually, ob (observed)","[3]; Cmpd I 1.25 g ae/ha, 32 DAAA",7.5%
same,"% control rated visually, ob (observed)","[3]; Cmpd I 1.25 g ae/ha, 58 DAAA",11.3%
same,"% control rated visually, ob (observed)","[3]; Cmpd I 1.25 g ae/ha, 80 DAAA",16.3%
same,"% control rated visually, ob (observed)","[3]; Cmpd I 2.5 g ae/ha, 32 DAAA",10.0%
same,"% control rated visually, ob (observed)","[3]; Cmpd I 2.5 g ae/ha, 58 DAAA",15.0%
same,"% control rated visually, ob (observed)","[3]; Cmpd I 2.5 g ae/ha, 80 DAAA",15.0%
same,"% control rated visually, ob (observed)","[3]; Cmpd I 5 g ae/ha, 32 DAAA",6.3%
same,"% control rated visually, ob (observed)","[3]; Cmpd I 5 g ae/ha, 58 DAAA",12.5%
same,"% control rated visually, ob (observed)","[3]; Cmpd I 5 g ae/ha, 80 DAAA",6.3%
same,"% control rated visually, ob (observed)","[3]; Cmpd I 7.5 g ae/ha, 32 DAAA",28.8%
same,"% control rated visually, ob (observed)","[3]; Cmpd I 7.5 g ae/ha, 58 DAAA",28.8%
same,"% control rated visually, ob (observed)","[3]; Cmpd I 7.5 g ae/ha, 80 DAAA",18.8%

# Source: patent publication US9730446B2, “Herbicidal compositions comprising 4-amino-3-chloro-6-(4-chloro-2-fluoro-3-methoxyphenyl)pyridine-2-carboxylic acid or a derivative thereof and propyzamide” (Dow AgroSciences LLC, priority 2013, dated 2017)
